The values below are quoted from earlier work in US20110064816A1 (DR. REDDY'S LABORATORIES LTD., priority 2008, published 2011).

Counter-ions that a name gives are not always drawn.

For the series the following is noted: exposed to heat, moisture, light and low pH conditions.

On to `CC(C)c1c(C(=O)Nc2ccccc2)c(-c2ccccc2)c(-c2ccc(F)cc2)n1CC[C@@H](O)C[C@@H](O)CC(=O)O` (relative stereo) [Atorvastatin calcium, [R-(R*,R*)]-2-(4-fluorophenyl)-β,δ-dihydroxy-5-(1-methylethyl)-3-phenyl-4-[(phenylamino)carbonyl]-1H-pyrrole-1-heptanoic acid, calcium salt (2:1) trihydrate], for which the “Degradation from the carboxylic form to a lactone form” value is reported as “susceptible to degradation”.
